Results taken from ChEMBL document CHEMBL5512618, “MYC the oncogene from hell: Novel opportunities for cancer therapy” (Eur J Med Chem, 2024).

Assays:
[1] = molecular target: c-Myc/Max (Homo sapiens, UniProt P01106+P61244); test: Inhibition of His6-tagged Max (151 residues)(unknown origin) expressed in bacterial system/recombinant MYC ) (unknown origin) expressed in bacterial system by EMSA
[2] = tested on: HL-60; test: Inhibition of cell development in human HL-60 cells; assay type: functional, cell-based
[3] = molecular target: Myc proto-oncogene protein (Homo sapiens, UniProt P01106); test: Binding affinity to CM5 sensor chip immobilized MYC bHLHZip domain (unknown origin) assessed as dissociation constant by SPR analysis
[4] = tested on: Burkitts lymphoma cell; test: Inhibition of cell growth in human Burkitts lymphoma cells; assay type: functional, cell-based
[5] = Lipophilicity, logP of compound; assay type: physicochemical; conditions: octanol/water

COC(=O)c1ccc(Nc2ccc([N+](=O)[O-])c3nonc23)c(-c2ccc(C)cc2)c1
IC50 [1]: 34 µM

O=[N+]([O-])c1ccc(Nc2ccccc2-c2ccccc2)c2nonc12
IC50 [2]: 7.2 µM

O=C(O)c1ccc(Nc2ccc([N+](=O)[O-])c3nonc23)cc1
IC50 [2]: 30 µM

COc1ccc2nc3cc(/N=N/c4ccc(N)nc4N)ccc3c(N)c2c1
Kd [3]: 1.6 µM | IC50 [4]: 0.5 µM

Cn1nc(C(F)(F)F)cc1-c1ccc(OCc2ccc(Cl)cc2)c(-c2ccc(Cl)c(C(F)(F)F)c2)c1O
logP [5]: 8.4
